This note sets out measurements from US20170121344A1 (Siga Technologies, Inc., priority 2009, published 2017).

As a reminder, the EC50 is the midpoint of the concentration-response curve.

Each structure is given as a SMILES string. Read-outs that look alike come from different tables or passages of the source. Some results are limits rather than exact numbers.

The assay deals with Dengue-2 (Strain New Guinea C). In words: Viral yield assay against Dengue-2 in Vero cells. It counts as cell-based, Dengue virus. The method in brief:
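Progeny virus from compound-treated Vero monolayers infected at an MOI of 0.1 is collected after 48 h at 37° C and titered on Vero cells. DMSO serves as control.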

Where [1] appears, read: Dengue virus, Vero cells, MOI 0.1, harvested 48 hours post infection, read-out: Activity (EC50 class) against Dengue-2 Virus in Vero cells.
Where [2] appears, read: Dengue virus, Vero, 48 h, read-out: Activity (EC50 class) against Dengue-2 Virus in Vero cells.
The mark [3] stands for this setting: Dengue virus, DENV2, viral yield assay, Vero cells, MOI 0.1, 48 hours post infection, read-out: Activity (EC50 in μM) DENV-2.
[4] abbreviates: Dengue virus, DENV2, Vero cells, read-out: Activity (EC50 in μM) DENV-2.

Consider `CN1CCc2nc3sc(C(=O)NCc4ccc5c(c4)OCO5)c(N)c3cc2C1` [Compound 269, 3-Amino-6-methyl-5,6,7,8-tetrahydro-thieno[2,3-b][1,6]naphthyridine-2-carboxylic acid (benzo[1,3]dioxol-5-ylmethyl)-amide], for which the EC50 under setting [1] is more than 25 µM.

As for `CC(C)NC(=O)c1sc2nc3c(cc2c1N)CN(C)CC3` [Compound 270, 3-Amino-6-methyl-5,6,7,8-tetrahydro-thieno[2,3-b][1,6]naphthyridine-2-carboxylic acid isopropylamide], the EC50 under setting [1] was more than 25 µM.

In the case of `CCN(CC)C(=O)c1sc2nc3c(cc2c1N)CN(C(C)C)CC3` [Compound 271, 3-Amino-6-isopropyl-5,6,7,8-tetrahydro-thieno[2,3-b][1,6]naphthyridine-2-carboxylic acid diethylamide], under setting [2], the EC50 was more than 25 µM.

In the case of `CCc1nnc(NC(=O)c2sc3nc4c(cc3c2N)CN(C(C)C)CC4)s1` [Compound 272, 3-Amino-6-isopropyl-5,6,7,8-tetrahydro-thieno[2,3-b][1,6]naphthyridine-2-carboxylic acid (5-ethyl-[1,3,4]thiadiazol-2-yl)-amide], the EC50 under setting [1] is more than 25 µM.

For the compound `CC(C)NC(=O)c1sc2nc3c(c(-c4cccs4)c2c1N)CN(C)CC3` [Compound 273, 3-Amino-6-methyl-4-thiophen-2-yl-5,6,7,8-tetrahydro-thieno[2,3-b][1,6]naphthyridine-2-carboxylic acid isopropylamide], under setting [2], the EC50 is more than 25 µM.

On to `COc1cc2c(cc1OC)CN(C(=O)c1sc3nc4c(cc3c1N)CN(C)CC4)CC2` [Compound 274, (3-Amino-6-methyl-5,6,7,8-tetrahydro-thieno[2,3-b][1,6]naphthyridin-2-yl)-(6,7-dimethoxy-3,4-dihydro-1H-isoquinolin-2-yl)-methanone], for which the EC50 under setting [1] is more than 25 µM.

Consider `CCOC(=O)N1CCC(NC(=O)c2sc3nc4c(cc3c2N)CN(CC)CC4)CC1` [Compound 275], for which, under setting [1], the EC50 was more than 25 µM.

`CCN(CC)c1ccc(NC(=O)c2sc3nc4c(cc3c2N)CN(C)CC4)cc1` [Compound 276, 3-Amino-6-methyl-5,6,7,8-tetrahydro-thieno[2,3-b][1,6]naphthyridine-2-carboxylic acid (4-diethylamino-phenyl)-amide]: under setting [1], the EC50 is more than 25 µM.

On to `CN1CCc2nc3sc(C(=O)Nc4c(F)cccc4F)c(N)c3cc2C1` [Compound 277, 3-Amino-6-methyl-5,6,7,8-tetrahydro-thieno[2,3-b][1,6]naphthyridine-2-carboxylic acid (2,6-difluoro-phenyl)-amide], for which the EC50 under setting [1] was more than 25 µM.

Take `CN1CCc2nc3sc(C(=O)Nc4nncs4)c(N)c3cc2C1` [Compound 278, 3-Amino-6-methyl-5,6,7,8-tetrahydro-thieno[2,3-b][1,6]naphthyridine-2-carboxylic acid [1,3,4]thiadiazol-2-ylamide]: under setting [1], the EC50 was more than 25 µM.

Consider `COc1ccc(CNC(=O)c2sc3nc4c(cc3c2N)CN(C)CC4)cc1OC` [Compound 279, 3-Amino-6-methyl-5,6,7,8-tetrahydro-thieno[2,3-b][1,6]naphthyridine-2-carboxylic acid 3,4-dimethoxy-benzylamide], for which the EC50 under setting [1] was more than 25 µM.

In the case of `CN1CCc2nc3sc(C(=O)Nc4cccc(C(F)(F)F)c4)c(N)c3cc2C1` [Compound 280, 3-Amino-6-methyl-5,6,7,8-tetrahydro-thieno[2,3-b][1,6]naphthyridine-2-carboxylic acid (3-trifluoromethyl-phenyl)-amide], the EC50 under setting [1] was more than 25 µM.

As to `Nc1c(C(=O)NC2CCCCC2)sc2nc3c(cc12)CCCCC3` [Compound 281, 3-amino-N-cyclohexyl-6,7,8,9-tetrahydro-5H-cyclohepta[b]thieno [3,2-e]pyridine-2-carboxamide], the EC50 under setting [3] lay within 5 to 25 µM.

With `CCCCNC(=O)c1sc2nc3c(cc2c1N)CCCCC3` [Compound 282, 3-amino-N-butyl-6,7,8,9-tetrahydro-5H-cyclohepta [b]thieno[3,2-e]pyridine-2-carboxamide], under setting [3], the EC50 fell in the range of 5 to 25 µM.

Regarding `CC(C)(C)NC(=O)c1sc2nc3c(cc2c1N)CCCCC3` [Compound 283, 3-amino-N-(tert-butyl)-6,7,8,9-tetrahydro-5H-cyclohepta[b]thieno [3,2-c]pyridine-2-carboxamide], the EC50 under setting [3] was less than 5 µM.

Turning to `Cc1cnc2sc(C(=O)Nc3nnc(-c4ccccc4)s3)c(N)c2c1` [Compound 286, 3-amino-5-methyl-N-(5-phenyl-1,3,4-thiadiazol-2-yl)thieno[2,3-b]pyridine-2-carboxamide], the EC50 under setting [3] is less than 5 µM.

As for `COc1ccnc2sc(C(=O)Nc3nnc(-c4ccccc4)s3)c(N)c12` [Compound 287, 3-amino-4-methoxy-N-(5-phenyl-1,3,4-thiadiazol-2-yl)thieno[2,3-b]pyridine-2-carboxamide], the EC50 under setting [3] fell in the range of 5 to 25 µM.

For the compound `Nc1cnc2sc(C(=O)Nc3nnc(-c4ccccc4)s3)c(N)c2c1` [Compound 290, 3,5-diamino-N-(5-phenyl-1,3,4-thiadiazol-2-yl)thieno[2,3-b]pyridine-2-carboxamide], the EC50 under setting [3] was less than 5 µM.

Turning to `Nc1c(C(=O)Nc2nnc(-c3ccccc3)s2)sc2ncc(C(=O)O)cc12` [Compound 291, 3-amino-2-[(5-phenyl-1,3,4-thiadiazol-2-yl)carbamoyl]thieno[2,3-b]pyridine-5-carboxylic acid], the EC50 under setting [3] is 5 to 25 µM.

On to `CN(C)CC(=O)Nc1c(C(=O)Nc2cccc(C(F)(F)F)c2)sc2nc(-c3cccs3)ccc12` [Compound 308, 3-[[2-(dimethylamino)acetyl]amino]-6-(2-thienyl)-N-[3-(trifluoromethyl)phenyl]thieno[2,3-b]pyridine-2-carboxamide], for which the EC50 under setting [4] was less than 5 µM.

Take `NCCCNc1c(C(=O)Nc2nnc(-c3ccccc3)s2)sc2nc3c(cc12)CCCCC3` [Compound 313, 3-((3-aminopropyl)amino)-N-(5-phenyl-1,3,4-thiadiazol-2-yl)-6,7,8,9-tetrahydro-5H-cyclohepta[b]thieno[3,2-e]pyridine-2-carboxamide]: the EC50 under setting [4] was less than 5 µM.

With `CC(=O)N(CCN)c1c(C(=O)Nc2nnc(-c3ccccc3)s2)sc2nc3c(cc12)CCCCC3` [Compound 314, 3-(N-(2-amino-ethyl)acetamido)-N-(5-phenyl-1,3,4-thiadiazol-2-yl)-6,7,8,9-tetrahydro-5H-cylcohepta[b]thieno[3,2-e]pyridine-2-carboxamide], the EC50 (Vero cells, read-out: Activity (EC50 in μM) DENV-2) is less than 5 µM.

As to `CN(C)CCNc1c(C(=O)Nc2nnc(-c3ccccc3)s2)sc2nc3c(cc12)CCCCC3` [Compound 315, 3-((2-(dimethylamino)ethyl)amino)-N-(5-phenyl-1,3,4-thiadiazol-2-yl)-6,7,8,9-tetrahydro-5H-cyclohepta[b]thieno [3,2-e]pyridine-2-carboxamide], under setting [4], the EC50 is less than 5 µM.

For the compound `O=c1[nH]c2c(sc3nc(-c4cccs4)ccc32)c(=O)n1-c1cccc(C(F)(F)F)c1` [Compound 316, 7-(thiophen-2-yl)-3-(3-(trifluoromethyl)phenyl)pyrido[3′,2′:4,5]thieno[3,2-d]pyrimidine-2,4(1H,3H)-dione], the EC50 under setting [3] is less than 5 µM.

Take `Nc1c(C(=O)Nc2cccc(C(F)(F)F)c2)sc2nc(C(F)(F)F)ccc12` [Compound 317, 3-amino-6-(trifluoromethyl)-N-[3-(trifluoromethyl)phenyl]thieno[2,3-b]pyridine-2-carboxamide]: the EC50 under setting [3] is less than 5 µM.

Take `Cc1nc(C)c(-c2ccc3c(N)c(C(=O)Nc4cccc(C(F)(F)F)c4)sc3n2)s1` [Compound 318, 3-amino-6-(2,4-dimethylthiazol-5-yl)-N-[3-(trifluoromethyl)phenyl]thieno[2,3-b]pyridine-2-carboxamide]: the EC50 under setting [3] was less than 5 µM.

`N=C(Nc1cccc(C(F)(F)F)c1)c1sc2nc(-c3cccs3)ccc2c1N` [Compound 319, 3-amino-6-(2-thienyl)-N-[3-(trifluoromethyl)phenyl]thieno[2,3-b]pyridine-2-carboxamidine]: under setting [3], the EC50 is less than 5 µM.

For `O=C1CN(c2cccc(C(F)(F)F)c2)C(=O)c2sc3nc(-c4cccs4)ccc3c2N1` [Compound 320], the EC50 under setting [3] is less than 5 µM.

Take `CN(C)CCN(C(=O)c1sc2nc(-c3cccs3)ccc2c1N)c1cccc(C(F)(F)F)c1` [Compound 323, 3-amino-N-(2-dimethylaminoethyl)-6-(2-thienyl)-N-[3-(trifluoromethyl)phenyl]thieno[2,3-b]pyridine-2-carboxamide]: the EC50 under setting [3] was less than 5 µM.

For the compound `CC(=O)Nc1nc2sc(C(=O)Nc3ccc(Br)cc3)c(N)c2c(-c2ccco2)c1C#N` [Compound 324, 6-acetamido-3-amino-N-(4-bromophenyl)-5-cyano-4-(2-furyl)thieno[2,3-b]pyridine-2-carboxamide], the EC50 under setting [3] is less than 5 µM.

For the compound `Nc1c(C(=O)N(CC(=O)O)c2cccc(C(F)(F)F)c2)sc2nc(-c3cccs3)ccc12` [Compound 326], the EC50 under setting [3] was less than 5 µM.

As to `Nc1c(C(=O)Nc2ccc(C(=O)O)cc2)sc2nc(-c3ccc(Cl)cc3)ccc12` [Compound 334, 4-[[3-amino-6-(4-chlorophenyl)thieno [2,3-b]pyridine-2-carbonyl]amino] benzoic acid], the EC50 under setting [3] is less than 5 µM.

Consider `Nc1c(C(=O)Nc2ccc(S(=O)(=O)O)cc2)sc2nc(-c3ccc(Cl)cc3)ccc12` [Compound 346, 4-[[3-amino-6-(4-chlorophenyl)thieno[2,3-b]pyridine-2-carbonyl]amino]benzenesulfonic acid], for which, under setting [3], the EC50 is less than 5 µM.

In the case of `Nc1c(C(=O)Nc2cc(Cl)ccc2Cl)sc2nc(-c3ccc(Cl)cc3)ccc12` [Compound 347, 3-amino-6-(4-chlorophenyl)-N-(2,5-dichloro-phenyl)thieno [2,3-b]pyridine-2-carboxamide], under setting [3], the EC50 was less than 5 µM.
